Drawing on PubChem BioAssay AID179 (DTP/NCI, 2004), this text covers EC50, IC50 and outcome for 28 compounds.

The source made the active and inactive calls.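 How the source made its calls: active means compounds giving half or more protection of infected cells from virus-caused growth loss, again on retest; inactive means the rest.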

In this experiment the test system is CEM cells HIV-1 protection, formazan growth assay. Briefly: NCI AIDS Antiviral Assay. Particulars: for IC50: measured here: growth of uninfected CEM cells. The method, then:
The ability of compounds to protect human CEM cells from HIV-1 infection is measured as a screen for new compounds capable of inhibiting the HIV virus. Five concentrations of drug were tested on uninfected and infected cells and cell growth was measured using a soluble formazan assay. […] Compounds that provided at least 50% protection were retested. Compounds that provided at least 50% protection on retest were listed as moderately active. Compounds that reproducibly provided 100% protection were listed as confirmed active. […] Note that the inability to provide protection could be due to toxicity.

For orientation: EC50 means the concentration at which the effect is half-maximal. Usually IC50 stands for the concentration at which inhibition is half-maximal. A high value points to weaker potency. Take `CC1=C(C(=O)Nc2ccccc2)C(c2ccc(C)o2)C(C#N)=C(SCc2ccccc2)N1` (stereo not drawn): the EC50 is more than 200 µM and the IC50 was found to be 24 µM. For the compound `Cc1cnc2c(c1C)C(=O)c1ccccc1C2=O`, the result was inactive. On the same count and under the same terms, under `O=C(Nc1ccccc1)C(c1ccccc1)N(Nc1ccccc1)c1ccccc1` (stereo not drawn) stands “inactive”. `COc1ccc2c(O)c(Oc3ccccc3)c(=O)oc2c1`: the EC50 is more than 200 µM and the IC50 is 145 µM.

For the compound `O=C1/C(=C\c2ccc(Cl)cc2Cl)Sc2scc(-c3ccc(O)c(O)c3)[n+]21`, the EC50 was more than 200 µM and the IC50 is 6.31 µM. For `Cc1nc(C(N)=S)sc1C(=O)CC(=O)C(=O)Nc1c(C(C)C)cccc1C(C)C`, in that order: more than 302 µM and 30.9 µM. For `N#Cc1c(C#N)c(-c2ccco2)n(-c2ccccc2)c1N`, the EC50 is more than 200 µM and the IC50 was more than 200 µM. On to `CC1OC(OC2C(O)COC(OC3C(C)OC(OC4C(OC(=O)[C@]56CCC(C)(C)C[C@@H]5C5=CCC7[C@@]8(C)C[C@H](O)[C@H](OC9OC(CO)C(O)C(O)C9O)[C@@](C)(CO)[C@@H]8CC[C@@]7(C)[C@]5(C)CC6)OCC(O)C4O)C(O)C3O)C2O)C(O)C(O)C1O` (stereo partly drawn), for which the EC50 was more than 100 µM and the concentration for half-maximal inhibition (IC50) was 29.5 µM.

As to `CCOC(=O)c1c(-c2ccc(OC)cc2)ccn1C`, the EC50 was more than 200 µM and the IC50 worked out at 28.8 µM. Regarding `O=CC1=CN2C(c3ccoc3)CCC(CO)C2CC1` (stereo not drawn), the result was inactive. Regarding `CCCCCCC[CH2][Sn]([CH2]CCCCCCC)([O]c1cccc2cccnc12)[O]c1cccc2cccnc12`, the EC50 is more than 21.4 µM and the IC50 is more than 21.4 µM. For `Cn1nc2ccccc2cc1=O`, the EC50 was more than 1550 µM and the IC50 stood at 661 µM. For the compound `COC(=O)CC(C(C(=O)OCc1ccccc1)C(C)O)N1C(=O)OC(c2ccccc2)C1c1ccccc1` (stereo not drawn), the EC50 was more than 251 µM and the IC50 was more than 251 µM.

Regarding `Clc1ccc2nc(-c3ccccc3)nc(Cl)c2c1`, the result was inactive.

Regarding `O=P(N1CC1)(N1CC1)N1CCN(P(=O)(N2CC2)N2CC2)CC1`, the EC50 was more than 200 µM and the IC50 is 2.24 µM.

With `O=C1C(O)=C(c2ccccc2C(=O)O)C(=O)C(O)=C1c1ccccc1C(=O)O`, the EC50 was more than 110 µM and the IC50 is more than 110 µM. On to `[Cl][Pt+2][Cl].[NH-]C1CCCC1[NH-]` (stereo not drawn), for which the EC50 is more than 200 µM and the IC50 was 49 µM. As to `Cc1ccc(C[N+](C)(C)c2ccccc2)o1`, the EC50 was more than 724 µM and the IC50 worked out at 102 µM.

`CC1CN1c1c(C(=O)/C=C/c2ccc(Cl)cc2)c(-c2ccccc2)nn(C)c1=O` (stereo not drawn): the EC50 is more than 8.91 µM and the IC50 is more than 8.91 µM. For `CCOC(=O)C(=Cc1cccc(Cl)c1)C(=O)OCC`, the EC50 was more than 91.2 µM and the IC50 came to 6.17 µM.

As for `Cc1cc2c(C(C)C)c(O)c(O)c(C=NC(C)c3ccccc3)c2c(O)c1-c1c(C)cc2c(C(C)C)c(O)c(O)c(C=NC(C)c3ccccc3)c2c1O` (stereo not drawn), the EC50 is more than 7.24 µM, the outcome was inactive and the IC50 was more than 7.24 µM. In the case of `CC(=O)N(CCc1ccccc1)C(C)(C#N)c1ccccc1` (stereo not drawn), the EC50 was more than 200 µM and the IC50 is more than 200 µM. In the case of `CC1Cc2c(cc(N)nc2Br)NC1=O` (stereo not drawn), the EC50 is more than 200 µM and the IC50 was 95.5 µM. For `C=CCOc1cc(NC(=S)c2ccoc2C)ccc1OC`, in that order: 0.141 µM and 117 µM. On the same counts, the results for `O=C1/C(=C\c2ccccc2)Oc2ccc(Cl)cc21` are more than 14.5 µM and more than 14.5 µM. Turning to `O=c1c(O)c(-c2cc(O)c(O)c(O)c2)oc2cc(O)cc(O)c12`, the EC50 is more than 282 µM and the IC50 was 13.8 µM. For `CCOC(=O)CC(=O)Nc1cccc2sc3ncccc3c(=O)c12`, in that order: more than 200 µM and 30.2 µM. On to `c1ccc(COc2cccc3ccc[n+](Cc4ccccc4)c23)cc1`, for which the EC50 is more than 251 µM and the IC50 is 4.68 µM.
